Measurements published in US20260215412A1, “AGROCHEMICAL FORMULATION” (priority 2023, published 2026).
Blank lines part the entries; values can stand above or below the compound they belong to.

Experiments:
[1] = Solubility of pydiflumetofen in solvents suitable for emulsion production; format: physicochemical
Excerpt: The choice of solvent for an agrochemical EC formulation is important and dependent upon the individual active ingredient that is the solute. In addition, the choice of solvent for an emulsifiable concentrate formulation can have an impact on the physical stability, application properties, and biological performance of the agrochemical formulation. In this case the active ingredient is the fungicide pydiflumetofen or 3-difluoromethyl-1-methyl-1H-pyrazole-4-carboxylic acid methoxy-[1-methyl-2-(2,4,6-trichlorophenyl)-ethyl]-amide to give it its IUPAC name (the name “pydiflumetofen” is used herein interchangeably with the IUPAC name 3-difluoromethyl-1-methyl-1H-pyrazole-4-carboxylic acid methoxy-[1-methyl-2-(2,4,6-trichlorophenyl)-ethyl]-amide).

[2] = Emulsion stability / emulsion quality testing upon dilution; format: physicochemical; conditions: for suitability as emulsifier for EC formulations of pydiflumetofen: sole surfactant in the test formulations (solo surfactant screens); for emulsion quality of two-way blends: non-ionic surfactant combined with anionic surfactant B^an in two-way blends
Experimental: Test sample of EC formulations of 3-difluoromethyl-1-methyl-1H-pyrazole-4-carboxylic acid methoxy-[1-methyl-2-(2,4,6-trichlorophenyl)-ethyl]-amide were diluted in standard water samples of known hardness (Table 5) in crow receivers, which were then incubated overnight at 5° C. and 30° C.
Emulsion quality was assessed visually after homogenising the samples through inversion, using a scale of 0 to 5 as shown in Table 7 below.
Further visual assessments were carried out 0.5, 2 and 24 hours post homogenisation and the volume of any cream or oil recorded. After 24 hours, the samples were re-homogenised and number of inversions required for re-emulsification was recorded and the samples were re-incubated at 5 or 30 (as appropriate) and a final visual assessment, including by microscopy was carried out.

Compound: Block copolymer of poyhrdroxystearic acid and polyalkylene glycol [C^ni]
suitability as emulsifier for EC formulations of pydiflumetofen [2]: most promising

Compound: Castor oil ethoxylate [A^ni]
emulsion quality of two-way blends [2]: better quality emulsions overall

Compound: POE (11)-synthetic primary C12/C15 alcohol [B^ni]
emulsion quality of two-way blends [2]: better quality emulsions overall
suitability as emulsifier for EC formulations of pydiflumetofen [2]: most promising

Further lines, results first:

Solubility of pydiflumetofen at 25° C. % ([1]; solvent Acetophenone): 17.3%
Solubility of pydiflumetofen at 25° C. % ([1]; solvent Dimethyl lactamide): 9.65%
Solubility of pydiflumetofen at 25° C. % ([1]; solvent Dowanol DPM): 3.77%
Solubility of pydiflumetofen at 25° C. % ([1]; solvent Ethyl lactate): 5.74%
Solubility of pydiflumetofen at 25° C. % ([1]; solvent Gamma butyrolactone): 14.7%
Solubility of pydiflumetofen at 25° C. % ([1]; solvent Methyl benzoate): 15.1%
Solubility of pydiflumetofen at 25° C. % ([1]; solvent Octan-1-ol): 0.63%
Solubility of pydiflumetofen at 25° C. % ([1]; solvent Solvesso 200 ND/ULN): 5.85%
Solubility of pydiflumetofen at 25° C. % ([1]; solvent THFA (Tetrahydrofurfuryl acetate)): 9.7%
Solubility of pydiflumetofen at 25° C. % ([1]; solvent Tributyl phosphate): 6.18%
Solubility of pydiflumetofen at 25° C. % ([1]; solvent Triethyl phosphate): 8.82%
Solubility of pydiflumetofen at 25° C. % ([1]; solvent Trimethylcyclohexanone): 10.2%
Compound: CON(C(=O)c1cn(C)nc1C(F)F)C(C)Cc1c(Cl)cc(Cl)cc1Cl (centres unmarked) [pydiflumetofen, 3-difluoromethyl-1-methyl-1H-pyrazole-4-carboxylic acid methoxy-[1-methyl-2-(2,4,6-trichlorophenyl)-ethyl]-amide]

emulsion quality of two-way blends [2]: better quality emulsions overall
Compound: Polyoxyethylene sorbitan monolaurate [D^ni]
